Assays:
Type in all cases: functional
Rattus norvegicus [1] = assay: Antistress activity in Rattus norvegicus Sprague-Dawley (rat) assessed as inhibition of acute stress-induced increase in corticosterone level at 40 mg/kg, po (reference value: 465.7 +/- 15.77 ng/ml)
Rattus norvegicus [2] = assay: Antistress activity in Rattus norvegicus Sprague-Dawley (rat) assessed as inhibition of acute stress-induced plasma creatinine kinase activity at 40 mg/kg, po (reference value: 1115 +/- 29.43 IU/dl)
Rattus norvegicus [3] = assay: Antistress activity in Rattus norvegicus Sprague-Dawley (rat) assessed as inhibition of acute stress-induced hyperglycemia measured as glucose level at 40 mg/kg, po (reference value: 134.7 +/- 4.68 mg/dl)
Rattus norvegicus [4] = assay: Antistress activity in Rattus norvegicus Sprague-Dawley (rat) assessed as inhibition of acute stress-induced adrenal hypertrophy measured as adrenal gland weight per 100 g of body weight at 40 mg/kg, po (reference value: 10.20 +/- 0.69 mg)

| Compound | Activity (Rattus norvegicus [1]) [ng/mL] | Activity (Rattus norvegicus [2]) [IU/dl] | Activity (Rattus norvegicus [3]) [mg/dL] | Activity (Rattus norvegicus [4]) [mg] |
| --- | --- | --- | --- | --- |
| COc1ccc(CC2CC(c3cccc4ccccc34)=NO2)cc1OC (stereo unspecified) | 293.5 | 590 | 109.51 | 7.54 |
| COc1cc(CC2CC(c3cccc4ccccc34)=NO2)ccc1OCCN1CCCC1 (stereo unspecified) | 421 | 1074 | 125 | 10.58 |
| COc1cc(CC2CC(c3cccc4ccccc34)=NO2)ccc1OC(C)=O (stereo unspecified) | 311.8 | 673 | 74.67 | 7.77 |
| COc1cc(CC2CC(c3cccc4ccccc34)=NO2)ccc1OCCN1CCCCC1 (stereo unspecified) | 282.5 | 603.7 | 78.17 | 7.23 |
| COc1ccc(C2=NOC(Cc3ccc(OCc4ccccc4)c(OC)c3)C2)c(OC)c1 (stereo unspecified) | 354.8 | 664.3 | 80.5 | 8.01 |
| COc1ccc(C2=NOC(Cc3ccc(OC)c(OC)c3)C2)c(OC)c1 (stereo unspecified) | 446 | 1092 | 122 | 9.63 |
| COc1cc(CC2CC(c3cccc4ccccc34)=NO2)ccc1O (stereo unspecified) | 417.2 | 998.5 | 86.24 | 9.86 |
| COc1ccc(C2=NOC(Cc3ccc(OCCN4CCCC4)c(OC)c3)C2)c(OC)c1 (stereo unspecified) | 429.8 | 934.7 | 127 | 9.82 |
| COc1ccc(C2=NOC(Cc3ccc(O)c(OC)c3)C2)c(OC)c1 (stereo unspecified) | 432.2 | 1004 | 112 | 9.31 |
| CCOc1ccc(CC2CC(c3ccc(OC)cc3OC)=NO2)cc1OC (stereo unspecified) | 275.5 | 729.7 | 93 | 7.82 |
| COc1ccc(C2=NOC(Cc3ccc(OC(C)=O)c(OC)c3)C2)c(OC)c1 (stereo unspecified) | 364.2 | 766.71 | 107.2 | 7.01 |
| COc1ccc(C2=NOC(Cc3ccc(OCCN4CCCCC4)c(OC)c3)C2)c(OC)c1 (stereo unspecified) | 320 | 733.8 | 101.7 | 7.6 |
| COc1cc(CC2CC(c3cccc4ccccc34)=NO2)ccc1OCc1ccccc1 (stereo unspecified) | 444.7 | 994.5 | 116.3 | 9.6 |
| CCOc1ccc(CC2CC(c3cccc4ccccc34)=NO2)cc1OC (stereo unspecified) | 292.3 | 625.7 | 72.83 | 7.89 |

From ChEMBL document CHEMBL3046941, “Synthesis of novel isoxazolines via 1,3-dipolar cycloaddition and evaluation of anti-stress activity” (2011)
